Results taken from patent US5933819A, “Prediction of relative binding motifs of biologically active peptides and peptide mimetics” (The Scripps Research Institute, priority 1997, dated 1999).
Where two headings read alike, the source gives them in different places. Where no end group is shown, it is not given here.

Experiments:
[1] = target: T1, K^b on the surface of K^b transfected drosophila cells (Mus musculus, UniProt P01901); assay: FACS analysis of stabilization of cell surface K^b by peptides; type: cell-based
T1 construct: expressed in transfected cells; host or cells: Drosophila cells transfected with K^b
T1 sequence (P01901 22-369): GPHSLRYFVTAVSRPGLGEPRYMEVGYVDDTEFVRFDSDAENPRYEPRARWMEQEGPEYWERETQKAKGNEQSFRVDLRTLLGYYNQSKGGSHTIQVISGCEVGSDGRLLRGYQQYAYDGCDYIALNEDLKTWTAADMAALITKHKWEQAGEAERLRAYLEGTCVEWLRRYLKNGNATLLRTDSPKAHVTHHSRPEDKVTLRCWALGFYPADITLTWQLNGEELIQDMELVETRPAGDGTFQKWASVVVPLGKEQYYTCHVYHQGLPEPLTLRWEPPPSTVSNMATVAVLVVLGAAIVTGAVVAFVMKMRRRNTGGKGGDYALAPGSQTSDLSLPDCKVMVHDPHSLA
T1 sequence (P01887 21-119 partner): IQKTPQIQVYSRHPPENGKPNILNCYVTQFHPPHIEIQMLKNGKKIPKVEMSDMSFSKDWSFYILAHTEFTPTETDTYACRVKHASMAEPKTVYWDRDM
Protocol: FACS Analysis. Values from fluorescence activated cell sorter (FACS) analysis showing the relative amounts of K^b on the surface of K^b transfected drosophila cells following an 18-hour incubation with the indicated peptides. […] Median fluorescence values from separate experiments were normalized by subtracting the median fluorescence obtained in the absence of added peptides from each peptide sample and then expressing those values as the percent of the fluorescence obtained with […] (which was examined in all experiments). Peptide binding was also analyzed by the ability to stabilize cell surface K^b molecules. Empty class I molecules are thermolabile, but they can be stabilized by binding appropriate peptides. Peptides were bound to K^b molecules expressed on the surfaces of K^b transfected Drosophila cells. Their relative binding strengths are indicated by their median fluorescence.

K^b [2] = target: T2, K^b (Mus musculus, UniProt P01901); assay: biochemical; type: binding
T2 construct: Soluble K^b was purified from transfected Drosophila cells; made in house; host or cells: transfected Drosophila cells
T2 sequence (P01901 22-305 limits assumed): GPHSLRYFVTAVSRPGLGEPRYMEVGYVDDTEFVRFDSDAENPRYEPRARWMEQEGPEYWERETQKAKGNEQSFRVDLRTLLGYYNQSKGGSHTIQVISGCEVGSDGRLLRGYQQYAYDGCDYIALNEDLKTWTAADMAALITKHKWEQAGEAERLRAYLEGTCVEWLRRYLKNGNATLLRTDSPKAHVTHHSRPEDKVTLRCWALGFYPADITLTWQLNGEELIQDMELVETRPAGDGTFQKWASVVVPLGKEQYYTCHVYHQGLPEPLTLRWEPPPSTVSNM
T2 sequence (P01887 21-119 partner): T1 sequence (P01887 21-119 partner)

K^b [3] = target: T2, K^b; settings: known immunodominant epitope, characterized previously; read-out: KD (dissociation constant); cited from earlier work
[4] = read-out: KD (dissociation constant)
[5] = 18-hour incubation with peptide, 23° C., antibody Y3, median fluorescence normalized to SIINFEKL

| Molecule | FACS Analysis % SIINFEKL (relative amount of K^b on cell surface) [1] | Kd (K^b [2]; [4]) [nM] | FACS Analysis % SIINFEKL (relative amount of K^b on cell surface) [1, 5] [% SIINFEKL] | Kd (K^b [2]) [nM] | Kd (K^b [3]) [nM] |
| --- | --- | --- | --- | --- | --- |
| ENIFYCPI [Peptide 11] | 77 | 94 |  |  |  |
| RGDKLPGFG [Peptide 6] |  |  | 30 | 550000 |  |
| SALAMVYL [Peptide 2] |  |  | 100 | 7.1 |  |
| ASEKMKIL [Peptide 9] |  |  | 4 | 550000 |  |
| NAIVFKGL [Peptide 4] |  |  | 76 | 13 |  |
| GTMSMLVL [Peptide 8] |  |  | 0 | 1200 |  |
| DHPFLFCI [Peptide 10] |  |  | 38 | 47000 |  |
| CC[C@H](C)[C@H](NC(=O)[C@@H](NC(=O)[C@@H](N)CO)[C@@H](C)CC)C(=O)N[C@@H](CC(N)=O)C(=O)N[C@@H](Cc1ccccc1)C(=O)N[C@@H](CCC(=O)O)C(=O)N[C@@H](CCCCN)C(=O)N[C@@H](CC(C)C)C(=O)O [Peptide 1, reference compound] |  |  | 100 |  | 3 |
| DVYSFSLA [Peptide 7] |  |  | 65 | 70 |  |
| RGYVYQGL [VSV8, reference compound] |  | 4.1 |  |  |  |
| AEERYPIL [Peptide 3] |  |  | 42 | 67000 |  |
| KVVRFDKL [Peptide 5] |  |  | 94 | 26 |  |
